Measurements as given in paper PMC5926742 (Japanese Journal of Cancer Research : Gann, 2001).

Target: DNA polymerase β (Bos taurus, UniProt Q27958)
Experiment: [methyl-3H]TTP incorporation into activated DNA, DE81 paper disc
Assay type: biochemical

Row | SMILES | IC50 [µM]
1 | Nc1ccn([C@H]2CC[C@@H](COP(=O)(O)OP(=O)(O)OP(=O)(O)O)O2)c(=O)n1 [ddCTP] | 240
2 | Nc1ccn([C@@H]2O[C@H](COP(=O)(O)OP(=O)(O)OP(=O)(O)O)[C@@H](O)C2(F)F)c(=O)n1 [dFdCTP] | 450
